Results as given in patent US9468624B2, “Small molecule antagonists of bacterial quorum-sensing receptors” (priority 2008, dated 2016).

What was measured:
[1] = system: CviR-dependent violacein production; assay: Violacein production in wild type C. violaceum, dose-response; assay type: cell-based; conditions: Chromobacterium violaceum, read-out: IC50 for inhibition of violacein production
Experimental: E. coli strains were grown overnight in LB medium with antibiotics at 37° C. and sub-cultured into fresh medium at a 1:100 dilution. Various AHL and antagonists were added at constant concentrations or titrated as stated. The gfp was measured on an Envision plate reader after 5 hours of growth at 37° C. C. violaceum strains were grown aerobically in 1 mL Nutrient Broth plus 1 mM tryptophan at 30° C. […] Cells were collected via centrifugation at 13000 rpm for 15 minutes. Pellets were resuspended in 1 mL of methanol and incubated at 42° C. for 1 hour. Samples were again collected via centrifugation at 13000 rpm for 5 minutes and analyzed for violacein by measuring optical density at 568 nm on a Beckman Coulter DU-800 spectrophotometer. For the dose-response analyses, all assays were performed in triplicate.
To determine if 4606-4237 inhibits violacein production specifically by interfering with CviR, 4606-4237 was tested for antagonism of CviR in the recombinant E. coli vioA-gfp assay. For these experiments, C6-HSL was held constant at 500 nM, while 4606-4237 was titrated from 1.3 nM to 100 μM (FIG. 3D). This concentration of native C6-HSL signal induces maximal gfp production in this heterologous assay system. Importantly, no C. violaceum components other than CviR are present in the recombinant E. coli assay strain. Thus, any inhibition occurring would be due to a specific interaction between the antagonist molecule 4606-4237 and CviR rather than an interaction of 4606-4237 with some unknown component required for violacein production in C. violaceum. […] Thus, 4606-4237 functions by disabling CviR-mediated activation of gene expression in both the C. violaceum in vivo violacein assay and the recombinant E. coli vioA-gfp assay.

[2] = target: CviR (Chromobacterium violaceum, UniProt D3W065); conditions: CviR expressed in E. coli, whole cell vs soluble extract, ligand 50 μM
CviR, sequence (D3W065 1-265): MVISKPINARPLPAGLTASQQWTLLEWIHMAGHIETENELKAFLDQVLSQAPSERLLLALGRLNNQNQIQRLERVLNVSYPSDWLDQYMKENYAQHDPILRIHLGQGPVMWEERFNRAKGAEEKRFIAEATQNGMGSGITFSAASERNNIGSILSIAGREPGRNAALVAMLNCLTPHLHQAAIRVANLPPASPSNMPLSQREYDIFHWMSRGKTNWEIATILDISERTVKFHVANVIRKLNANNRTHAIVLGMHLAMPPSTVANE
Experimental: CviR Overexpression and Purification. CviR was overexpressed in BL21(DE3) pLysS by growing an overnight culture in LB supplemented with 100 μg/mL ampicillin and 10 μg/mL chloramphenicol. The culture was diluted 1:50 into fresh LB supplemented with 100 μg/mL ampicillin and 10 μg/mL chloramphenicol and grown shaking at 37° C. to an OD600 of 0.4. Various AHL or antagonist molecules were added to at 50 μM and incubated an additional 30 minutes at 30° C., after which expression was induced by the addition of 100 μM IPTG (isopropyl-β-D-thiogalactopyranoside) for 4 hours at 30° C. Cells were harvested by centrifugation and lysed in 20 mM imidazole pH 8.0, 100 mM NaCl, 0.5 mM EDTA and 5% glycerol via a Micro-fluidizer processor (MicroFluidics). Protein was purified via ion-exchange using a Hitrap Heparin HP column (GE Healthcare). Protein was eluted with a 100 mM to 1 M NaCl gradient. Fractions containing CviR were pooled and diluted in lysis buffer devoid of NaCl, and then further purified by cation exchange chromatography using a Hitrap SP HP column (GE Healthcare). CviR was eluted with a 100 mM to 1 M NaCl gradient.
The solubility characteristics of CviR were analyzed in the presence of the various molecules under study. […] As controls, the protein was also expressed in the absence of any AHL or antagonist. In each case, whole cell and soluble fractions of cell lysates were analyzed by SDS-PAGE to assess whether the CviR protein in question had been stabilized.

[3] = target: T1, LuxN (Vibrio campbellii, UniProt A7MRY4); assay: V. harveyi bioluminescence dose-response; assay type: cell-based, Vibrio harveyi; conditions: IC50 for inhibition of bioluminescence
T1 construct: Light production from wild type V. harveyi (BB120), a luxPQ mutant (BB960), and a luxPQ, luxS double mutant (JMH624) was measured; endogenous in cells; host or cells: V. harveyi BB120, BB960 (luxQ::Tn5), JMH624 (ΔluxM, luxQ::Tn5)
T1 sequence (A7MRY4 whole entry): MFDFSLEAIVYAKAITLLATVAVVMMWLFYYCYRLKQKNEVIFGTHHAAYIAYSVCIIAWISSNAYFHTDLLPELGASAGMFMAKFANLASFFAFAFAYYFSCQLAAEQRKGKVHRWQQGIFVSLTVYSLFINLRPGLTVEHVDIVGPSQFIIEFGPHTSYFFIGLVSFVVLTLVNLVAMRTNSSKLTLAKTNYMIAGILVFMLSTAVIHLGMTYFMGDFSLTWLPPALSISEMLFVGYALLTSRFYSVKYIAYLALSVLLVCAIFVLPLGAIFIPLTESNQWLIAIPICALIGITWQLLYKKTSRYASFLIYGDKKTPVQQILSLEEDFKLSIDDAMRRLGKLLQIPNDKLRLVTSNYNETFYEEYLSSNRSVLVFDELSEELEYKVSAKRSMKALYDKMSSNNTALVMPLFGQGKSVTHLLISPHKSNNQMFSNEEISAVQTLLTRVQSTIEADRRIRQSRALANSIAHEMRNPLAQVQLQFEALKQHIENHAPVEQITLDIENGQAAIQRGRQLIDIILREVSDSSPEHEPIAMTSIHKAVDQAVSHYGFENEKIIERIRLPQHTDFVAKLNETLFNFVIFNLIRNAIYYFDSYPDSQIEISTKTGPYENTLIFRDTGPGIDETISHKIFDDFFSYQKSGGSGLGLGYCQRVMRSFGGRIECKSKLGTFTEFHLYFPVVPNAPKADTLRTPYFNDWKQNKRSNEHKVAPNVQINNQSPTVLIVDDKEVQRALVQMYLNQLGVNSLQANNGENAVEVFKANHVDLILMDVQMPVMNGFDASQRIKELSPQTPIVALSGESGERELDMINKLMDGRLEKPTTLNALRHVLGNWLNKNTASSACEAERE
Experimental: Wild type C. violaceum strain ATCC31532 was purchased from the ATCC. The cviI mutant strain, CV026 was kindly supplied by Clay Fuqua and Paul Williams. C. violaceum strains were grown aerobically at 30° C. in either Luria-Bertani broth or Nutrient Broth supplemented with 1 mM trypotophan. V. harveyi strains were grown aerobically at 30° C. in autoinducer bioassay (AB) broth. AI-1 dose-response curves were generated in V. harveyi strains BB120, BB960 and JMH624 as described. E. coli was grown at 37° C. in Luria Bertani broth. The plasmid pET23b (Novagen) was used for expressing cviR in E. coli strain BL21-Gold (DE3) or BL21(DE3) pLysS (Stratagene) and maintained by inclusion of Ampicillin at 100 μg/ml. Plasmid pEVS141 was used for the vioA-gfp promoter fusion and maintained with 50 μg/ml of Kanamycin. C. elegans wild type strain, N2 was used for all of the nematode infection studies. Worms were propagated on Nematode Growth Media (NGM) medium with an E. coli OP50 lawn as the food source and allowed to multiply at 20° C.
To determine the properties of CTL and CL in relation to the LuxN receptor, the in vivo activity was examined of 4606-4237, CTL, and CL for V. harveyi LuxN using dose response analyses of the endogenous quorum-sensing-activated target, bioluminescence. Three different V harveyi strains were examined (1) The wild type V. harveyi strain BB120 which has multiple quorum-sensing circuits, and thus responds to multiple autoinducers, only one of which is the AHL acting through LuxN. (2) V. harveyi BB960 which lacks the receptor for the second autoinducer making the AHL-LuxN circuit the dominant input into bioluminescence expression. (3) V. harveyi JMH624 which, in addition to lacking the receptor for the second autoinducer lacks the AHL synthase LuxM. Thus, V. harveyi JMH624 induces bioluminescence exclusively in response to the AHL, 3OH-C4-HSL signal but only when it is supplied exogenously. Exogenous addition of 20 nM 3OH-C4-HSL is sufficient to induce maximal bioluminescence in all of these strains.

[4] = V. harveyi JMH624 + 20 nM 3OH-C4-HSL

Row | SMILES | IC50 [1] | CviR folding and solubility in presence of ligand [2] | IC50 ([3]; V. harveyi BB960) | IC50 [3, 4] | IC50 ([3]; wild type V. harveyi BB120)
1 | O=C(CCCOc1ccc(Cl)cc1)NC1CCSC1=O (stereo not shown) [CTL, Chloro-thiolactone] | 723 nM | promoted CviR31532 folding and solubility | 28 µM | 6 µM | 150 µM
2 | O=C(CCCOc1ccc(Cl)cc1)NC1CCOC1=O (stereo not shown) [CL, chlorolactone] | 295 nM | promoted CviR31532 folding and solubility | 14 µM | 0.873 µM | 40 µM
